In ChEMBL document CHEMBL1152162, “Coagulanolide, a withanolide from Withania coagulans fruits and antihyperglycemic activity” (2008):

Legend:
Assay type in all cases: functional
Mus musculus [1] = assay: Antihyperglycemic activity in po dosed diabetic C57BL/KsJ-db/db mouse model assessed as decrease in postprandial blood glucose level for 10 days; conditions: 240 h
Mus musculus [2] = assay: Antihyperglycemic activity in diabetic C57BL/KsJ-db/db mouse model assessed as decrease in total cholesterol at 50 mg/kg, po for 10 days relative to control; parameters: scale not given: the % may be the effect or the level left
Mus musculus [3] = assay: Antihyperglycemic activity in diabetic C57BL/KsJ-db/db mouse model assessed as decrease in postprandial blood glucose level at 50 mg/kg, po for 10 days relative to control; parameters: scale not given: the % may be the effect or the level left
Mus musculus [4] = assay: Antihyperglycemic activity in diabetic C57BL/KsJ-db/db mouse model assessed as increase in high-density lipoprotein cholesterol at 50 mg/kg, po for 10 days relative to control
Mus musculus [5] = assay: Antihyperglycemic activity in diabetic C57BL/KsJ-db/db mouse model assessed as decrease in low-density lipoprotein cholesterol at 50 mg/kg, po for 10 days relative to control; parameters: scale not given: the % may be the effect or the level left
Rattus norvegicus [6] = assay: Antihyperglycemic activity in Sprague-Dawley normoglycemic rat model assessed as glucose tolerance at 100 mg/kg, po administered 30 mins before sucrose-load
Mus musculus [7] = assay: Antihyperglycemic activity in diabetic C57BL/KsJ-db/db mouse model assessed as improvement in glucose tolerance at 50 mg/kg, po for 10 days relative to control by OGTT
Rattus norvegicus [8] = assay: Antihyperglycemic activity in streptozotocin-induced diabetic Sprague-Dawley rat model assessed as glucose tolerance at 100 mg/kg, po administered 30 mins before sucrose-load
Mus musculus [9] = assay: Antihyperglycemic activity in diabetic C57BL/KsJ-db/db mouse model assessed as decrease in plasma triglyceride level at 50 mg/kg, po for 10 days relative to control; parameters: scale not given: the % may be the effect or the level left
Mus musculus [10] = assay: Antihyperglycemic activity in diabetic C57BL/KsJ-db/db mouse model assessed as decrease in blood glucose AUC at 50 mg/kg, po for 10 days relative to control; parameters: scale not given: the % may be the effect or the level left
Mus musculus [11] = assay: Antihyperglycemic activity in diabetic C57BL/KsJ-db/db mouse model assessed as decrease in very low-density lipoprotein cholesterol at 50 mg/kg, po for 10 days relative to control; parameters: scale not given: the % may be the effect or the level left

| SMILES | ED50 (Mus musculus [1]) | Activity (Mus musculus [2]) | Activity (Mus musculus [3]) | Activity (Mus musculus [4]) | Activity (Mus musculus [5]) | Activity (Rattus norvegicus [6]) | Activity (Mus musculus [7]) | Activity (Rattus norvegicus [8]) | Activity (Mus musculus [9]) | Activity (Mus musculus [10]) | Activity (Mus musculus [11]) |
| --- | --- | --- | --- | --- | --- | --- | --- | --- | --- | --- | --- |
| CC1=C(C)C(=O)O[C@@H]([C@](C)(O)[C@]2(O)CC[C@@]3(O)[C@@H]4CC=C5C[C@@H](O[C@@H]6O[C@H](CO)[C@@H](O)[C@H](O)[C@H]6O)CC(=O)[C@]5(C)[C@H]4CC[C@]23C)C1 | 25 mg/kg | 25.7% | 22.7% | 24.7% | 21.2% | 29.8% | 44.1% | 23.3% | 14.7% | 40.5% | 15.6% |
| CC1=C(C)C(=O)O[C@@H]([C@](C)(O)[C@]2(O)CC[C@@]3(O)[C@@H]4CC=C5C=CCC(=O)[C@]5(C)[C@H]4CC[C@]23C)C1 | – | – | – | – | – | 20.4% | – | 15.8% | – | – | – |
| CC1=C(C)C(=O)O[C@@H]([C@](C)(O)[C@]2(O)C[C@H](O)[C@@]3(O)[C@@H]4CC=C5CC=CC(=O)[C@]5(C)[C@H]4CC[C@@]32C)C1 [COAGULANOLIDE] | – | – | – | – | – | 28.1% | – | 14.7% | – | – | – |
| CC1=C(C)C(=O)O[C@@H]([C@]2(C)O[C@@]34CC[C@]2(O)[C@@]3(C)CC[C@H]2[C@H]4CC=C3CC=CC(=O)[C@@]32C)C1 [COAGULIN C] | – | – | – | – | – | 22.8% | – | 16.9% | – | – | – |
| CC(C)OC(=O)C(C)(C)Oc1ccc(C(=O)c2ccc(Cl)cc2)cc1 [FENOFIBRATE] | – | 30.8% | – | 12.4% | 24.5% | – | – | – | 16.2% | – | 21.6% |
| CN(C)C(=N)NC(=N)N [METFORMIN] | – | – | 18.6% | – | – | 26.4% | 24.8% | 17.1% | – | 24.8% | – |
| CC1=C(C)C(=O)O[C@@H]([C@](C)(O)[C@]2(O)CC[C@@]3(O)[C@@H]4CC=C5CC=CC(=O)[C@]5(C)[C@H]4CC[C@]23C)C1 [WITHANOLIDE F] | – | – | – | – | – | 24.9% | – | 18.2% | – | – | – |
